Measured values reported in patent US11155586B2, “Cystine knot scaffold platform” (Genentech, Inc., priority 2015, dated 2021).
Positions of bridges follow the written chain, without caps; N, C: chain ends. Residues, ends and D or L forms follow the SMILES beside them.

Tests used:
hVEGF(8-109) = target: T1, hVEGF(8-109) (Homo sapiens, UniProt P15692); assay: Spot phage ELISA; assay type: binding
T1 construct: hVEGF(8-109) or BSA were coated on 384-well MAXISORP™ immunoplates
T1 sequence (P15692 214-315): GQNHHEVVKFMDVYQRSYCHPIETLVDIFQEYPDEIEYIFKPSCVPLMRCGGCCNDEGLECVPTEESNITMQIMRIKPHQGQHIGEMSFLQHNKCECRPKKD
Method in brief: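 Clones counted positive when hVEGF(8-109) signal exceeded BSA background by over 3-fold, per spot ELISA using anti-M13-HRP/TMB detection. Phage came from overnight 37° C. cultures of individual clones picked after four binding rounds, supernatant diluted 1:3.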

VEGF-A and KDR = target: T2, VEGF-A and KDR (Homo sapiens, UniProt P15692); assay: Competition ELISA, KDR-VEGF interaction; assay type: binding
T2 sequence (P15692 207-395): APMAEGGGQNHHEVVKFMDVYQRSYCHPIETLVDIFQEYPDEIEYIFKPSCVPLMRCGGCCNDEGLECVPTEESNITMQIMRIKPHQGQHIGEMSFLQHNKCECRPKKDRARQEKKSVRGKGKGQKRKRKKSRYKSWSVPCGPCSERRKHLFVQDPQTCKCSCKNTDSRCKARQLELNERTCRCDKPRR
Procedure: Binding specificity of each peptide was established by competition ELISA. […] After blocking with block buffer (PBS with 0.5% BSA and 0.05% TWEEN®20) for 2 hours at room temperature, the receptor-Fc fusions or biotinylated receptors were serially diluted using assay buffer (PBS with 0.5% BSA and 0.05% TWEEN®20) and incubated for 1 hour at room temperature. […] Competition ELISA was conducted in an identical fashion as described above except after blocking, a mixture of serially diluted peptide containing a constant concentration of receptor-Fc fusion or biotinylated receptor (concentration of receptor was set to EC60) was added and incubated for 1 hour. All recombinant human proteins and antibodies were purchased from R &D Systems (Minneapolis, Minn.).

hVEGF-A (8-109) = target: T3, hVEGF-A (8-109) (Homo sapiens, UniProt P15692); assay: SPR binding assay (BIACORE 3000, 37° C.)
T3 sequence (P15692 34-135 isoform P15692-4): T1 sequence (P15692 214-315)
Method in brief: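 VEGF-A, biotinylated and captured on streptavidin sensor or amine-coupled to CM5 at pH 5.0, to about 400 RU. Peptide concentration series in HBS-EP with 0.1% DMSO injected at […]; kinetics and affinities from 1:1 binding model fits.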

VEGF human 165 = target: T4, VEGF human 165 (Homo sapiens, UniProt P15692); assay: SPR binding assay; conditions: for ka / kd: human 165, Table 30
T4 sequence (P15692 27-191 isoform P15692-4): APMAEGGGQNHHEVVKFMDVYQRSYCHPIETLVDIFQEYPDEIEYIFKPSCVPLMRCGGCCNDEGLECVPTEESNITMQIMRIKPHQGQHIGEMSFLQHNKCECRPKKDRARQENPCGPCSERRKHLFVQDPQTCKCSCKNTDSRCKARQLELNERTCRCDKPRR
Procedure: (§1) Depending on the format of the assay either a streptavidin sensor (SA) or a dextran-coated (CM5) sensor was utilized as described below.
(§2) For use with the SA sensor, VEGF-A was first biotinylated (no more than 2 biotin/VEGF-A) by incubating the protein with EZ-link NHS-PEG4-Biotin (Pierce) in a 1:1.5 molar ratio respectively, in PBS for 2 hours on ice. Reaction was then quenched by addition of 10 molar excess of Glycine pH 8.0 and the sample was buffer exchanged into PBS using an Amicon 0.5 mL 3000 MWCO ultra-centrifugal filters (EMD Millipore). The biotinylation state of the protein was verified by LC-MS analysis. Biotinylated VEGF-A was then captured on the surface until a resonance unit (RU) signal of about ˜400. For immobilization of VEGF-A on CM5 sensor, the surface was first activated with a mixture of N-ethyl-N′-(3-dimethylaminopropyl)carbodiimide hydrochloride and N-hydroxysuccinimide (EDC/NHS) according to the supplier instructions. VEGF-A was then diluted into coupling buffer (0.1 M Acetate Buffer, pH 5.0) and injected until the signal reached about ˜400 RU followed by a wash with 1 M ethanolamine pH 8.0 to quench remaining activated sites.
(§3) Following the capture step, a series of the peptide concentrations were prepared in HBS-EP buffer with matching DMSO concentrations to 0.1% and injected at a flow rate of […]. The resulting sensorgrams were then analyzed using a 1:1 binding model to obtain kinetic data and affinities using Scrubber 2.0 (BioLogic Software).

VEGF mouse 164 = target: T5, VEGF mouse 164 (Mus musculus, UniProt Q00731); assay: SPR binding assay; conditions: for ka / kd: mouse 164, Table 30
T5 sequence (Q00731 27-190 isoform Q00731-2): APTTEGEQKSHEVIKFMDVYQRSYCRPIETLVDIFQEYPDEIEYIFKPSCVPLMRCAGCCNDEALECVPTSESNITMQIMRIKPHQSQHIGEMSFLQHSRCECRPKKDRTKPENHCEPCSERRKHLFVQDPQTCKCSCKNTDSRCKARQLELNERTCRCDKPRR
Procedure: as §1, §2, §3

rat VEGF-A = target: T6, rat VEGF-A (Rattus norvegicus, UniProt P16612); assay: SPR binding assay; conditions: for ka / kd: rat, Table 30
T6 sequence (P16612 27-139 limits assumed): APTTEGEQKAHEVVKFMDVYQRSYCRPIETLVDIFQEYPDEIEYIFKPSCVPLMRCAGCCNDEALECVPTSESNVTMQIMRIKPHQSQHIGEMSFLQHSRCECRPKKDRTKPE
Procedure: as §1, §2, §3

[1] = tested on: hVEGF-A mutants (Y21A, K48A, Q89A, F17A/M81A); assay: SPR binding assay, hVEGF-A mutants; design: species or system human; kd: unit not given here
Procedure: as §1, §2, §3
The binding interface of VEGF_CKP9.54.90 on VEGF-A overlaps with that of the natural receptors and G6.31 antibody (FIGS. 7 and 8). […] However, K48A mutation enhanced the binding of VEGF_CKP9.54.90 by ˜2-3 fold, a behavior that is similar to that observed with the G6.31 antibody (Fuh et al. (2006) J. Biol. Chem. 281, 6625-6631).

trypsin = assay: Trypsin protease activity, peptide substrate cleavage assay; assay type: biochemical; conditions: FIG. 3

SMILES | IC50 (VEGF-A and KDR) | Kd (hVEGF-A (8-109); KD (nM), hVEGF-A WT) | Kd (hVEGF-A (8-109); KD (nM), human 8-109, Table 30) | kd (hVEGF-A (8-109); hVEGF-A WT) | kd (hVEGF-A (8-109); human 8-109, Table 30) | ka (VEGF human 165) | kd (VEGF human 165) | ka (VEGF mouse 164) | kd (VEGF mouse 164) | ka (rat VEGF-A) | kd (rat VEGF-A) | Kd ([1]; hVEGF-A mutant K48A) | ka ([1]; hVEGF-A mutant K48A) | kd ([1]; hVEGF-A mutant K48A) | Kd ([1]; hVEGF-A mutant Q89A) | ka ([1]; hVEGF-A mutant Q89A) | kd ([1]; hVEGF-A mutant Q89A) | Kd ([1]; hVEGF-A mutant Y21A) | ka ([1]; hVEGF-A mutant Y21A) | kd ([1]; hVEGF-A mutant Y21A) | further results
CC[C@H](C)[C@@H]1NC(=O)[C@H](CC(N)=O)NC(=O)[C@@H](NC(=O)CN)CSSC[C@@H](C(=O)N[C@H](C(=O)N[C@H]2CSSC[C@@H](C(=O)NCC(=O)O)NC(=O)[C@H](CO)NC(=O)[C@H](CCC(N)=O)NC(=O)[C@H](Cc3ccc(O)cc3)NC(=O)[C@H](Cc3ccc(O)cc3)NC(=O)[C@H](CCC(N)=O)NC2=O)C(C)C)NC(=O)CNC(=O)[C@H](C)NC(=O)[C@H](CC(C)C)NC(=O)[C@@H]2CSSC[C@H](NC(=O)CNC(=O)[C@H](Cc3c[nH]c4ccccc34)NC(=O)[C@H](Cc3ccccc3)NC(=O)[C@@H]3CCCN3C(=O)[C@H](CC(C)C)NC(=O)[C@H](CCSC)NC1=O)C(=O)NCC(=O)N[C@@H](CCCNC(=N)N)C(=O)N[C@@H](CC(=O)O)C(=O)N[C@@H](Cc1ccccc1)C(=O)N[C@@H](CCC(=O)O)C(=O)N2 [VEGF_CKP9.54.90] (H-GCNIMLPFWGCGRDFECLAGCVCQYYQSCG-OH; disulfide 2-21, 11-17, 23-29; N-terminus and C-terminus assumed) | 0.2 nM | 0.37 nM | 0.87 nM | 0.0300 | 4.05 × 10^−2 | 1.58 × 10^7 | 1.33 × 10^−2 | 8.71 × 10^6 | 1.01 × 10^−2 | 1.72 × 10^7 | 1.35 × 10^−2 | 0.19 nM | 6.04 × 10^7 | 0.0116 | 8.8 nM | 1.71 × 10^7 | 0.1458 | 3.5 nM | 3.72 × 10^7 | 0.1202 | S/N (signal to noise ratio as compared to BSA control) (hVEGF(8-109); Table 26): 29.5; ELISA (hVEGF(8-109); loop 2 variants based on 9.54 framework, Table 26): 2.3; disruption of the interaction between VEGF-A and KDR (VEGF-A and KDR; FIGS. 2A and 2B): disrupts; Kd (hVEGF-A (8-109); KD, Table 37, surface plasmon resonance, VEGF-A): 0.4 ± 0.08 nM; kd (hVEGF-A (8-109); Table 37, surface plasmon resonance, VEGF-A): 0.17; Kd (VEGF human 165): 0.89 nM; Kd (VEGF mouse 164): 1.31 nM; Kd (rat VEGF-A): 0.9 nM; binding to VEGF-A mutant F17A/M81A ([1]; F17A/M81A, relative to wild type VEGF-A): reduced binding; enhancement of binding by K48A mutation ([1]; K48A, relative to wild type VEGF-A): 2-3 fold; binding to VEGF-A mutant Q89A ([1]; Q89A, relative to wild type VEGF-A): reduced binding; binding to VEGF-A mutant Y21A ([1]; Y21A, relative to wild type VEGF-A): reduced binding; inhibition of trypsin protease activity (trypsin): do not inhibit
CC[C@H](C)[C@@H]1NC(=O)[C@H](CC(=O)O)NC(=O)[C@@H]2CCCN2C(=O)CNC(=O)[C@@H]2CSSC[C@H](NC(=O)[C@H](CC(=O)O)NC1=O)C(=O)N[C@@H](CC(C)C)C(=O)N[C@@H](C)C(=O)NCC(=O)N[C@H](C(=O)N[C@H](C(=O)N[C@H]1CSSC[C@@H](C(=O)NCC(=O)O)NC(=O)[C@H](CO)NC(=O)[C@H](CC(N)=O)NC(=O)[C@H](Cc3ccc(O)cc3)NC(=O)[C@H](Cc3c[nH]c4ccccc34)NC(=O)[C@H](Cc3c[nH]cn3)NC1=O)C(C)C)CSSC[C@H](NC(=O)CN)C(=O)N[C@@H](CC(=O)O)C(=O)N[C@@H](C(C)C)C(=O)N[C@@H](CCSC)C(=O)N[C@@H](CCC(N)=O)C(=O)N1CCC[C@H]1C(=O)N[C@@H](Cc1ccc(O)cc1)C(=O)N[C@@H](Cc1c[nH]c3ccccc13)C(=O)NCC(=O)N2 [VEGF_CKP9.63.12] (H-GCDVMQPYWGCGPDIDCLAGCVCHWYNSCG-OH; disulfide 2-21, 11-17, 23-29 (inferred); N-terminus and C-terminus assumed) |  |  |  | 0.0096 | 2.50 × 10^−2 | 4.65 × 10^6 | 2.01 × 10^−2 | 1.04 × 10^6 | 1.32 × 10^−2 | 6.44 × 10^6 | 2.59 × 10^−2 | 0.33 nM | 5.30 × 10^7 | 0.017 | 36.5 nM | 7.43 × 10^6 | 0.47 | 9.84 nM | 1.99 × 10^7 | 1.48 × 10^−1 | S/N (signal to noise ratio as compared to BSA control) (hVEGF(8-109); Table 27): 39.9; ELISA (hVEGF(8-109); loop 2 variants based on VEGF_CKP9.63 framework, Table 27): 2.6; kd (hVEGF-A (8-109); hVEGF-A (8-109), Table 29): 0.10; inhibition of trypsin protease activity (trypsin): do not inhibit
CSCC[C@@H]1NC(=O)[C@H](C(C)C)NC(=O)[C@H](CC(=O)O)NC(=O)[C@@H](NC(=O)CN)CSSC[C@@H](C(=O)N[C@H](C(=O)N[C@H]2CSSC[C@@H](C(=O)NCC(=O)O)NC(=O)[C@H](CO)NC(=O)[C@H](CC(N)=O)NC(=O)[C@H](Cc3ccc(O)cc3)NC(=O)[C@H](Cc3c[nH]c4ccccc34)NC(=O)[C@H](Cc3c[nH]cn3)NC2=O)C(C)C)NC(=O)CNC(=O)[C@H](C)NC(=O)[C@H](CC(C)C)NC(=O)[C@@H]2CSSC[C@H](NC(=O)CNC(=O)[C@H](Cc3c[nH]c4ccccc34)NC(=O)[C@H](Cc3ccc(O)cc3)NC(=O)[C@@H]3CCCN3C(=O)[C@H](CCC(N)=O)NC1=O)C(=O)N[C@@H](CCCCN)C(=O)N[C@@H](CCC(N)=O)C(=O)N[C@@H](CC(=O)O)C(=O)N[C@@H](CO)C(=O)N[C@@H](CC(=O)O)C(=O)N2 [VEGF_CKP9.63] (H-GCDVMQPYWGCKQDSDCLAGCVCHWYNSCG-OH; disulfide 2-21, 11-17, 23-29 (inferred); N-terminus and C-terminus assumed) | 10.8 nM | 100 nM | 281 nM | 0.1624 | 1.81 × 10^−1 | 3.40 × 10^5 | 1.30 × 10^−1 | 5.57 × 10^5 | 1.60 × 10^−1 | 4.56 × 10^5 | 2.46 × 10^−1 | 28.4 nM | 5.72 × 10^5 | 0.02 | 2000 nM | 2.66 × 10^5 | 0.51 | 585 nM | 7.52 × 10^5 | 0.4814 | S/N (signal to noise ratio as compared to BSA control) (hVEGF(8-109); Table 24): 29.7; ELISA (hVEGF(8-109); VEGF_CKP9 Loop1/Loop5 affinity-matured variants, Table 24): 2.0; Kd (hVEGF-A (8-109); KD, hVEGF-A (8-109), Table 29): 100 nM; kd (hVEGF-A (8-109); hVEGF-A (8-109), Table 29): 1.6; ka (hVEGF-A (8-109); human 8-109, Table 30): 6.62 × 10^5; Kd (VEGF human 165): 382 nM; Kd (VEGF mouse 164): 289 nM; Kd (rat VEGF-A): 524 nM
